Literature values in US20200046664A1, “METHOD FOR PREPARATION OF LIQUID ORAL COMPOSITION OF L-THYROXIN” (FTF PHARMA PRIVATE LIMITED, priority 2016, published 2020).

N[C@@H](Cc1cc(I)c(Oc2cc(I)c(O)c(I)c2)c(I)c1)C(=O)[O-].[Na+] [Levothyroxine sodium, Sodium (2S)-2-amino-3-[4-(4-hydroxy-3,5-diiodophenoxy)-3,5-diiodophenyl]propanoate]
Solubility in ethanol (96 percent) (ethanol (96 percent)): slightly soluble | Solubility in water (water): very slightly soluble
